The CATMoS acute toxicity set (Mansouri et al. 2021)
*1 amine or outer side, *2 acyl side, *3 side chain or, on linkers, in order; H or OH if unused. Where a SMILES comes first, the peptide text is derived from it. Bridges are numbered along the chain shown (N, C = ends). [ ]: non-standard residue; d: D form. The star is where a group is joined. X5 = O=C(NC(=O)[*:2])C(N[*:1])c1cc(Cl)c(O)c(Cl)c1; X3 = NCCCCN(C(=O)C(N[*:1])c1ccc(O)cc1)C(=O)[*:2]; X4 = NC1=NC(CC(N[*:1])C(=O)[*:2])CN1; Hpg = N[CH](C(=O)O)c1ccc(O)cc1; X2 = CCC(C)CCCC/C=C/C=C/C(=O)*; Cit = NC(=O)NCCC[CH](N)C(=O)O

Assay: GHS categories as the set defines them, by LD50: 1 up to 5, 2 up to 50, 3 up to 300, 4 up to 2000, 5 above 2000 mg/kg
Conditions: rat; in vivo; po
In the case of `Cc1nnc(SCCCSc2nnnn2C)o1`, the GHS category is reported as 4. In the case of `CC1(C)S[C@@H]2[C@H](N3C(=O)C(c4ccccc4)NC3(C)C)C(=O)N2[C@H]1C(=O)O` (stereo not given in full), the GHS category is reported as 5. `Cc1cc(C)c(C(=O)P(=O)(C(=O)c2c(C)cc(C)cc2C)c2ccccc2)c(C)c1` gave a GHS category of 5. Work on `CN1CC(CO)CC2c3cccc4c3c(cn4C(C)(C)C)CC21` (stereo not given) yielded a GHS category of 4. Work on `Cc1cccc(NC(=O)c2cc(C)[nH]n2)c1` yielded a GHS category of 5. `CC1Oc2cc(C(=O)c3ccc(Cl)cc3)ccc2NC1=O` (stereo not given) showed a GHS category of 5. For `CCCCCCOc1ccc(-c2nc(-c3ccccc3)nc(-c3ccccc3)n2)c(O)c1`, the GHS category was 5. Compound `Cc1ccccc1OC(=O)c1ccccc1OC(N)=O` has a GHS category of 5. For `COc1ccccc1N1CCN(/C(N)=N/c2ccc(Cl)c(Cl)c2)CC1`, the GHS category was 4. `COc1ccccc1C=NNC(N)=S` gave a GHS category of 5. Compound `COc1cc2c(cc1OC)C(c1ccccc1Cl)N(c1ccccc1)CC2` (stereo not given) has a GHS category of 4. Compound `O=C(Nc1ccccc1SSc1ccccc1NC(=O)c1ccccc1)c1ccccc1` has a GHS category of 5. `O=C(Nc1ccc(NC(=O)c2cc3ccccc3c(N=Nc3cc(Cl)ccc3Cl)c2O)cc1)c1cc2ccccc2c(N=Nc2cc(Cl)ccc2Cl)c1O` showed a GHS category of 5. `CCCCCCCCCCCCCOC(=O)c1ccccc1C(=O)OCCCCCCCCCCCCC` gave a GHS category of 5. For `Nc1ccc(N)c(S(=O)(=O)O)c1`, the GHS category was 5. Compound `Nc1c(I)c(C(=O)O)c(I)c(C(=O)O)c1I` has a GHS category of 5. Work on `CC1=C(C(=O)O)N2C(=O)[C@@H](NC(=O)C(N)C3=CCC=CC3)[C@H]2SC1` (stereo not given in full) yielded a GHS category of 5. Work on `COc1ccc(COC(=O)Cc2ccccc2)cc1` yielded a GHS category of 5. Compound `CC(C)(C)CC(C)(C)c1ccc(O)c(Cc2ccc(Cl)cc2Cl)c1` has a GHS category of 5. `O=Cc1cc([N+](=O)[O-])ccc1Cl` showed a GHS category of 5. Work on `CCCCC1COCC(C)C1OC(C)=O` (stereo not given) yielded a GHS category of 5. For `C#C[C@]1(O)CC[C@H]2[C@@H]3CCc4cc(OC)ccc4[C@H]3CC[C@@]21C`, the GHS category was 5. Compound `CCC1COC(Cn2cncn2)(c2cc3ccccc3o2)O1` (stereo not given) has a GHS category of 4. In the case of `C=CC(=C)CCC=C(C)C`, the GHS category is reported as 5. `C=CCCCCCCCCOC(C)=O` showed a GHS category of 5. `COC1=CC(=O)C[C@@H](C)[C@]12Oc1c(Cl)c(OC)cc(OC)c1C2=O` showed a GHS category of 5. In the case of `CC(C)=CCN(CC=C(C)C)CCC(C#N)(CC=C(C)C)c1cccc2ccccc12` (stereo not given), the GHS category is reported as 4. Compound `C=C1[C@H]2CC[C@@H]3[C@H]2C(C)(C)CCC[C@]13C` has a GHS category of 5. `CC(C)NC(=O)N1CCc2nc(N=C(N)N)sc2C1` gave a GHS category of 4. `O=C=Nc1ccc(Br)cc1` showed a GHS category of 5. For `COc1cc(OC)nc(NC(=O)NS(=O)(=O)c2ncccc2C(F)(F)F)n1`, the GHS category was 5. Compound `C[C@H]1C[C@@H]2[C@H]([C@@H](O)C[C@@]3(C)[C@H]2CC[C@]3(O)C(=O)CO)[C@@]2(C)C=CC(=O)C=C12` has a GHS category of 5. `CCC1(C)COC(Cn2cncn2)(c2cc3ccccc3o2)OC1` (stereo not given) gave a GHS category of 4. `CC[n+]1c(-c2ccccc2)c2cc(N)ccc2c2ccc(N)cc21` gave a GHS category of 5. With `CCCCCCCC(=O)OOC(C)(C)C` the GHS category was 5. `CCCCC/C=C\CCC(CCCCCCCC(=O)O)C(CCCCCCCC)CCCCCCCCC(=O)O` (stereo not given) showed a GHS category of 5. Work on `CCN(CCOC(C)=O)c1ccc(N=Nc2nc3ccc(Cl)cc3s2)cc1` yielded a GHS category of 5. Compound `CC=COC` has a GHS category of 5. Work on `COC(=O)CBr` yielded a GHS category of 3. For `Cc1cc(OC(=O)c2cc(Cl)ccc2OC(N)=O)ccc1Cl`, the GHS category was 5. Work on `CCC=CCCCCCCCC(=O)OC` yielded a GHS category of 5. `O=C(Nc1ccc(Cl)cc1)c1cc2ccccc2cc1O` gave a GHS category of 5. `CC(C)(c1cc(Br)c(OCC(Br)CBr)c(Br)c1)c1cc(Br)c(OCC(Br)CBr)c(Br)c1` (stereo not given) gave a GHS category of 5. With `CC(C)(C)OOC(C)(C)CCC(C)(C)OOC(C)(C)C` the GHS category was 5. With `CCOC(=O)C(=O)Nc1cc(OCCOC)ncn1` the GHS category was 4. Work on `Nc1nc2c(ncn2COCCO)c(=O)[nH]1` yielded a GHS category of 5. `N#CC(C(=O)OCC(COC(=O)C(C#N)=C(c1ccccc1)c1ccccc1)(COC(=O)C(C#N)=C(c1ccccc1)c1ccccc1)COC(=O)C(C#N)=C(c1ccccc1)c1ccccc1)=C(c1ccccc1)c1ccccc1` showed a GHS category of 5. With `COc1nc2cc(Cl)ccc2o1` the GHS category was 4. With `c1ccc(CN(Cc2ccccc2)Sc2nc3ccccc3s2)cc1` the GHS category was 5. With `CN1CC(c2ccon2)CC2c3cccc4[nH]cc(c34)CC21` (stereo not given) the GHS category was 4. In the case of `CCC(C)CCCC/C=C/C=C/C(=O)NC(CC(=O)O)C(=O)NC1C(=O)NC(c2ccc(O)cc2)C(=O)N(CCCCN)C(=O)NC(C(C)O)C(=O)NC(c2ccc(O)cc2)C(=O)NC(c2ccc(O)cc2)C(=O)NC(C(C)O)C(=O)NC(CCCNC(N)=O)C(=O)NC(CC2CNC(N)=N2)C(=O)NC(c2ccc(O)cc2)C(=O)NC(CO)C(=O)NC(c2cc(Cl)c(O)c(Cl)c2)C(=O)NC(=O)NC(CC2CNC(N)=N2)C(=O)NC(C)C(=O)NC(c2ccc(O)cc2)C(=O)OC1C` (stereo not given) (X2-DT[X3]T[Hpg][Hpg]T[Cit][X4][Hpg]S[X5][X4]A[Hpg]; ester 2-C; configuration not given here), the GHS category is reported as 5. With `CCCCCCCCCCCCCCCCCOS(=O)(=O)O` the GHS category was 4. `COc1ccccc1OC(=O)Cc1ccc(C(=O)c2ccc(C)cc2)n1C` gave a GHS category of 4. For `Cc1ccc2ncc(C(=O)NC3CCCC3)c(=O)n2c1`, the GHS category was 3. For `COC[C@H]1CO[C@@](Cn2ccnc2)(c2cc3ccccc3o2)O1`, the GHS category was 4.
